Test: Maximum concentration of ingredient incorporated into the microemulsion
Format: physicochemical
Conditions: incorporated into the microemulsion formulation of Table 28

Going from Xylene to C[C@]12C=CC(=O)C=C1CC[C@@H]1[C@@H]2C(=O)C[C@@]2(C)[C@H]1CC[C@]2(O)C(=O)CO [Prednisone, reference compound], the “Approximate Maximum Concentration” value falls from 5.0 to 0.5.

Going from CCCCCC [Hexane] to CC(=O)Oc1c(C)c(C)c2c(c1C)CCC(C)(CCC[C@H](C)CCC[C@H](C)CCCC(C)C)O2 (stereo partly drawn) [Vitamin E, α-Tocopherol acetate, reference compound], the “Approximate Maximum Concentration” value falls from 2.0 to 1.0.

In the case of Cc1ccccc1 [Toluene], the “Approximate Maximum Concentration” value is reported as 2.0.

From patent US20070078057A1, “Microemulsion formulation” (priority 2005, published 2007)
